{"source": "paper PMC8418346", "about": "“Aromatic L-amino acid decarboxylase deficiency: a patient-derived neuronal model for precision therapies” (Brain, 2021)", "key": {"[1]": {"molecular_target": "T1, AADC (aromatic L-amino acid decarboxylase), recombinant (Homo sapiens, UniProt P20711)", "T1 construct": "gene DDC; recombinant AADC produced in vitro; native homodimer", "T1 sequence (P20711 1-480)": "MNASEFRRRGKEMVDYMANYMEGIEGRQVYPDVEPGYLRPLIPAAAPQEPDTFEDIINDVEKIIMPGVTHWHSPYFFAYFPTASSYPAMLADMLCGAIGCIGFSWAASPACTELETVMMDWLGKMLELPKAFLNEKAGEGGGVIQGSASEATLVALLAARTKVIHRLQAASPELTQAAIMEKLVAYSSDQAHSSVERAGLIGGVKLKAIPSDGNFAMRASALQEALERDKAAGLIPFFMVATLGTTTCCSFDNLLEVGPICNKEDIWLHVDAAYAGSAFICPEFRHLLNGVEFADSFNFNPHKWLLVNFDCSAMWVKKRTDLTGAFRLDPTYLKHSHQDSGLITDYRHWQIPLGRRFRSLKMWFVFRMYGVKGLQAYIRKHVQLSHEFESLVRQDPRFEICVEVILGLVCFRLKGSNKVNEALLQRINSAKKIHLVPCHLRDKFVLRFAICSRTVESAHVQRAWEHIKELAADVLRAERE", "assay": "kinetic parameters of recombinant AADC (method in supplement)", "assay_type": "biochemical", "conditions": "wild-type reference of the C100S comparison; main text does not state whether measured here or taken from earlier work"}, "[2]": {"molecular_target": "T2, AADC (aromatic L-amino acid decarboxylase), recombinant (Homo sapiens, UniProt P20711, C100S)", "T2 construct": "gene DDC; recombinant AADC produced in vitro; native homodimer", "T2 sequence (P20711 1-480 C100S)": "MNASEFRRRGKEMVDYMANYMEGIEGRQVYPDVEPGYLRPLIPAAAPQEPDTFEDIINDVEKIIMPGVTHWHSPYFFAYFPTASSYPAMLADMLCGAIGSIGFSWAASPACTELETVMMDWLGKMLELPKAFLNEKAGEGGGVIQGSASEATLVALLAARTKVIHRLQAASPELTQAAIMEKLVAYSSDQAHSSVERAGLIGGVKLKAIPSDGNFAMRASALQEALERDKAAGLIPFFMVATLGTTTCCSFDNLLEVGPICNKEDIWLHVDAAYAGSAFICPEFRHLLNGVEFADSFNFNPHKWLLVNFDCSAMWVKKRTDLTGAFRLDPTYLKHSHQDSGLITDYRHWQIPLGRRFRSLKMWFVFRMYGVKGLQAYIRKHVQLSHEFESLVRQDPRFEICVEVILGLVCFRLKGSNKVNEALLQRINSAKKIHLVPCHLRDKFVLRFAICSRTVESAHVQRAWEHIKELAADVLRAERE", "assay": "PLP binding affinity of recombinant AADC (method in supplement)", "excerpt": "PLP binding affinity of recombinant AADC (method in supplement) on AADC (aromatic L-amino acid decarboxylase), recombinant | with a KD(PLP) consistently lower than previously reported values for AADC variants"}, "[3]": {"substrate": "N[C@@H](Cc1ccc(O)c(O)c1)C(=O)O", "assay": "kinetic parameters of recombinant AADC (method in supplement)", "assay_type": "biochemical, Homo sapiens", "excerpt": "kinetic parameters of recombinant AADC (method in supplement) on AADC (aromatic L-amino acid decarboxylase), recombinant | attributed to a slight decrease in L-DOPA affinity (KM)"}}}
{"molecule": "N[C@@H](Cc1ccc(O)c(O)c1)C(=O)O", "note": "[L-DOPA]", "values": [{"measurement": "KM", "setting": "[1]", "value": "catalytic activity (kcat) of AADCC100S was indeed similar to that observed for wild-type"}]}
{"molecule": "Cc1ncc(COP(=O)(O)O)c(C=O)c1O", "note": "[PLP]", "values": [{"measurement": "Kd", "setting": "[2]", "value": "112 ± 14", "unit": "nM"}]}
{"molecule": "AADC (aromatic L-amino acid decarboxylase), recombinant (Homo sapiens; C100S) (protein, recombinant AADC produced in vitro; native homodimer) MNASEFRRRGKEMVDYMANYMEGIEGRQVYPDVEPGYLRPLIPAAAPQEPDTFEDIINDVEKIIMPGVTHWHSPYFFAYFPTASSYPAMLADMLCGAIGSIGFSWAASPACTELETVMMDWLGKMLELPKAFLNEKAGEGGGVIQGSASEATLVALLAARTKVIHRLQAASPELTQAAIMEKLVAYSSDQAHSSVERAGLIGGVKLKAIPSDGNFAMRASALQEALERDKAAGLIPFFMVATLGTTTCCSFDNLLEVGPICNKEDIWLHVDAAYAGSAFICPEFRHLLNGVEFADSFNFNPHKWLLVNFDCSAMWVKKRTDLTGAFRLDPTYLKHSHQDSGLITDYRHWQIPLGRRFRSLKMWFVFRMYGVKGLQAYIRKHVQLSHEFESLVRQDPRFEICVEVILGLVCFRLKGSNKVNEALLQRINSAKKIHLVPCHLRDKFVLRFAICSRTVESAHVQRAWEHIKELAADVLRAERE", "values": [{"measurement": "Km", "setting": "[3]", "value": "420 ± 100", "unit": "µM"}, {"measurement": "kcat", "setting": "[3]", "value": "6.9 ± 0.6", "unit": "s⁻¹"}]}
